This passage reports ED50, Ki and LAD results from ChEMBL document CHEMBL1124195, “Substituted benzamides with conformationally restricted side chains. 2. Indolizidine derivatives as central dopamine receptor antagonists” (J Med Chem, 1988).

By ED50 is commonly meant the dose that gives a 50% effect, or the effect in half of the subjects. The low end stands for greater potency, the high end for weaker potency. Broadly, the Ki is a measure of affinity in units of concentration, obtained from inhibition or displacement. Lower therefore signals tighter binding.

Calls of active or inactive are those of the source. The calls are words filed in the database; no cut-off is given here.

The test system of one assay is Mus musculus. The assay can be described thus: Evaluated for the antagonism of apomorphine-induced climbing behavior in mice (sc). Type of assay: functional.
In a further assay the target is D(1A) dopamine receptor (Rattus norvegicus, UniProt P18901). Nature of the assay: Binding affinity against Dopamine receptor D1 at 10e-3 M concentration using cis-[3H]flupenthixol in rat striatal tissue.
Sequence of D(1A) dopamine receptor (P18901 whole entry): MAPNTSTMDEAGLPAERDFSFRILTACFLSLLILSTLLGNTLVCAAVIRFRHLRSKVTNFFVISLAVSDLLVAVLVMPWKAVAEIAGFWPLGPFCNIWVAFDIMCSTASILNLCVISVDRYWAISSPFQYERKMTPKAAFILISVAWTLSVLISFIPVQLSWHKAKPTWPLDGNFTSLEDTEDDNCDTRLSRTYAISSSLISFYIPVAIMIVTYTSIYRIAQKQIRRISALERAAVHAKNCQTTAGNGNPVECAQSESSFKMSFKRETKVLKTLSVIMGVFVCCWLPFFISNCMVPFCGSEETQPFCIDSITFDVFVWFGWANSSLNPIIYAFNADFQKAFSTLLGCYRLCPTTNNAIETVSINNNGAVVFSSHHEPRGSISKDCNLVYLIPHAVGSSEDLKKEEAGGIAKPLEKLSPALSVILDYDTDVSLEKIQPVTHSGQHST
Assay [1] deals with Rattus norvegicus. The assay can be described thus: Evaluated for lowest active dose (LAD) for (gastric prokinetic activity) stimulation of intragastric pressure (IGP) in rats (sc); Inactive (0.5-10 mg/kg). Type of assay: functional, organism-based.
In assay [2] the test system is Rattus norvegicus. Nature of the assay: Compound was tested for inducing catalepsy 4 hr after dose administered intraperitoneally. Conditions: ip. It counts as functional.
Assay [3] concerns Rattus norvegicus. Nature of the assay: Effective concentration for inhibition of amphetamine-induced locomotor activity in rats 4 hr after dosing administered intraperitoneally. Type of assay: functional. Conditions: ip.
The next assay addresses D(2) dopamine receptor (Rattus norvegicus, UniProt P61169). The assay can be described thus: Binding affinity against Dopamine receptor D2 at 10e-3 M concentration using [3H]spiperone in rat striatal tissue.
Assay [4] has as its system Rattus norvegicus. The assay can be described thus: Evaluated for lowest active dose (LAD) for (gastric prokinetic activity) stimulation of intragastric pressure (IGP) in rats (sc). It counts as functional.

Sequence of D(2) dopamine receptor (P61169 whole entry): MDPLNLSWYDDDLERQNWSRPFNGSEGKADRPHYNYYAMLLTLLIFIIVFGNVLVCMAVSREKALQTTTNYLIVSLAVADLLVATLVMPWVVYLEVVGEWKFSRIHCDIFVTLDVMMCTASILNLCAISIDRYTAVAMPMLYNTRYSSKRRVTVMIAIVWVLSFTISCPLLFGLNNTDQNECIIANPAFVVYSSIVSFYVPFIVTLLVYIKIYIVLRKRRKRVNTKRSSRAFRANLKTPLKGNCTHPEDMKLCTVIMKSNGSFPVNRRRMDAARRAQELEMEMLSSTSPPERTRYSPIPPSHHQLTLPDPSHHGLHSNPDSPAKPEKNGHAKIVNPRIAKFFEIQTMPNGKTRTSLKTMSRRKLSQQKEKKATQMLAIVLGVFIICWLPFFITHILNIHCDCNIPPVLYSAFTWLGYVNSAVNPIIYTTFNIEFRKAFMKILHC

For the compound `COc1cc(N)c(Cl)cc1C(=O)NC1CCN2CC(c3ccc(F)cc3)CC2C1` (centres undefined), the ED50 with Mus musculus stood at 0.015 mg/kg.

Take `COc1cc(N)c(Cl)cc1C(=O)NC1CCN2CC(C)(c3ccccc3)CC2C1` (centres undefined): the results for the inhibition constant Ki at D(1A) dopamine receptor and at D(2) dopamine receptor were > 10 µM and 250 nM, respectively. The LAD entry in the assay on Rattus norvegicus [1] is “inactive”. For the same compound, the median effective dose (ED50) in the assay on Rattus norvegicus [2] was 3.4 mg/kg; with Rattus norvegicus [3], 0.02 mg/kg; in the assay with Mus musculus, 0.078 mg/kg.

`COc1cc(N)c(Cl)cc1C(=O)NC1CCN2C[C@@H](c3ccccc3)CCC2C1` (some centres undefined): the LAD result in the assay on Rattus norvegicus [1] was “inactive”. In the assay with Mus musculus, the median effective dose (ED50) was > 1 mg/kg.

On to `COc1cc(N)c(Cl)cc1C(=O)NC1CCN2C[C@@H](c3ccccc3)CC2C1` (some centres undefined), for which the LAD result with Rattus norvegicus [1] was “inactive”. In the assay with Mus musculus, this compound had an ED50 of 0.024 mg/kg.

In turn, `COc1cc(N)c(Cl)cc1C(=O)NC1CCN2C[C@H](c3ccccc3)CC2C1` (some centres undefined) registered an LAD with Rattus norvegicus [4] of 1 mg/kg. Also, the ED50 with Mus musculus was > 3 mg/kg.

As to `COc1cc(N)c(Cl)cc1C(=O)NC1CCN2C[C@H](c3ccccc3)CCC2C1` (some centres undefined), the LAD result with Rattus norvegicus [1] was “inactive”. In addition, the 50% effective dose (ED50) in the assay with Mus musculus is > 1 mg/kg.

In the case of `COc1cc(N)c(Cl)cc1C(=O)NC1CCN(Cc2ccccc2)CC1` [CLEBOPRIDE], in the assay on Rattus norvegicus [4], the LAD was found to be 1 mg/kg. Also, the ED50 with Mus musculus amounted to 0.037 mg/kg.

In the assay on Mus musculus, `COc1cc(N)c(Cl)cc1C(=O)NC1CCN2CC(c3ccccc3F)CC2C1` (centres undefined) showed an ED50 of 0.03 mg/kg.

With `COc1cc(N)c(Cl)cc1C(=O)NC1CC(C)N2CC(c3ccccc3)CC2C1` (centres undefined), the LAD entry in the assay with Rattus norvegicus [1] was “inactive”. The compound also returned an ED50 in the assay with Mus musculus of 0.4 mg/kg.

As for `COc1cc(N)c(Cl)cc1C(=O)NC1CCN2CC(c3ccccc3)(c3ccccc3)CC2C1` (centres undefined), in the assay on Rattus norvegicus [1], the LAD result was “inactive”. Further, in the assay on Mus musculus, the ED50 was > 1 mg/kg.

Turning to `CCN(CC)CCNC(=O)c1cc(Cl)c(N)cc1OC` [METOCLOPRAMIDE], the LAD in the assay on Rattus norvegicus [4] was determined as 1 mg/kg. Also, it took a dose of 0.75 mg/kg to reach the 50% effect level in the assay on Mus musculus (ED50).
